The values below come from ChEMBL document CHEMBL1817616, “Synthesis, characterization and biological evaluation of some 16β-azolyl-3β-amino-5α-androstane derivatives as potential anticancer agents” (Eur J Med Chem, 2011).

Some results are limits rather than exact numbers.

One test relates to HeLa. Description: Anticancer activity against human HeLa cells after 48 hrs by MTT assay. The class given is functional, cell-based.
Conditions: not given
In general terms: Tetrazolium dyes change colour on reduction, which living cells bring about.
As to `CC(=O)O[C@H]1[C@@H](n2nnc3ccccc32)C[C@H]2[C@@H]3CC[C@H]4C[C@@H](N5CCCCC5)CC[C@]4(C)[C@H]3CC[C@@]21C`, it took 29.6 µM to reach half-maximal inhibition (IC50).
The same measure, in the same setting: with `CC(=O)O[C@H]1[C@@H](n2cncn2)C[C@H]2[C@@H]3CC[C@H]4C[C@@H](N(C)c5ccccc5)CC[C@]4(C)[C@H]3CC[C@@]21C` the figure was 19.8 µM.
Same read-out and setting: with `CCN(CC)[C@H]1CC[C@@]2(C)[C@@H](CC[C@@H]3[C@@H]2CC[C@@]2(C)[C@H]3C[C@H](n3cnc4ccccc43)[C@@H]2OC(C)=O)C1` the figure was > 50 µM; with `CC(=O)O[C@H]1[C@@H](n2ccnn2)C[C@H]2[C@@H]3CC[C@H]4C[C@@H](N(C)c5ccccc5)CC[C@]4(C)[C@H]3CC[C@@]21C`, 72.1 µM; with `CC(=O)O[C@H]1[C@@H](n2cnc3ccccc32)C[C@H]2[C@@H]3CC[C@H]4C[C@@H](N(C)Cc5ccccc5)CC[C@]4(C)[C@H]3CC[C@@]21C`, 6.04 µM.
The same measure, in the same setting: with `CC(=O)O[C@H]1[C@@H](n2cncn2)C[C@H]2[C@@H]3CC[C@H]4C[C@@H](N5CCN(C)CC5)CC[C@]4(C)[C@H]3CC[C@@]21C` the figure was > 50 µM; with `CC(=O)O[C@H]1[C@@H](n2cnc3ccccc32)C[C@H]2[C@@H]3CC[C@H]4C[C@@H](N5CCCCC5)CC[C@]4(C)[C@H]3CC[C@@]21C`, > 50 µM.

The next test deals with SW480. Description: Anticancer activity against human SW480 cells after 48 hrs by MTT assay. The class given is functional, cell-based. The following applies: SW480, 48 h.
On to `CC(=O)O[C@H]1[C@@H](n2nnc3ccccc32)C[C@H]2[C@@H]3CC[C@H]4C[C@@H](N5CCCCC5)CC[C@]4(C)[C@H]3CC[C@@]21C`, for which the IC50 (usually the midpoint of a concentration-inhibition curve) was > 50 µM.
The same measure, in the same setting: with `CC(=O)O[C@H]1[C@@H](n2cncn2)C[C@H]2[C@@H]3CC[C@H]4C[C@@H](N(C)c5ccccc5)CC[C@]4(C)[C@H]3CC[C@@]21C` the figure was > 50 µM; with `CCN(CC)[C@H]1CC[C@@]2(C)[C@@H](CC[C@@H]3[C@@H]2CC[C@@]2(C)[C@H]3C[C@H](n3cnc4ccccc43)[C@@H]2OC(C)=O)C1`, > 50 µM.
The same measure, in the same setting: in the case of `CC(=O)O[C@H]1[C@@H](n2ccnn2)C[C@H]2[C@@H]3CC[C@H]4C[C@@H](N(C)c5ccccc5)CC[C@]4(C)[C@H]3CC[C@@]21C` it was > 50 µM; in that of `CC(=O)O[C@H]1[C@@H](n2cnc3ccccc32)C[C@H]2[C@@H]3CC[C@H]4C[C@@H](N(C)Cc5ccccc5)CC[C@]4(C)[C@H]3CC[C@@]21C`, 15.8 µM.
Same read-out and setting: with `CC(=O)O[C@H]1[C@@H](n2cncn2)C[C@H]2[C@@H]3CC[C@H]4C[C@@H](N5CCN(C)CC5)CC[C@]4(C)[C@H]3CC[C@@]21C` the figure was > 50 µM; with `CC(=O)O[C@H]1[C@@H](n2cnc3ccccc32)C[C@H]2[C@@H]3CC[C@H]4C[C@@H](N5CCCCC5)CC[C@]4(C)[C@H]3CC[C@@]21C`, > 50 µM.

The test system of another test is A549. In words: Anticancer activity against human A549 cells after 48 hrs by MTT assay. Type of test: functional, cell-based. The conditions noted are these: A549, 48 h.
Turning to `CC(=O)O[C@H]1[C@@H](n2nnc3ccccc32)C[C@H]2[C@@H]3CC[C@H]4C[C@@H](N5CCCCC5)CC[C@]4(C)[C@H]3CC[C@@]21C`, the IC50 is 22.7 µM.
On the same count and under the same terms, with `CC(=O)O[C@H]1[C@@H](n2cncn2)C[C@H]2[C@@H]3CC[C@H]4C[C@@H](N(C)c5ccccc5)CC[C@]4(C)[C@H]3CC[C@@]21C` the figure was 12.3 µM; with `CCN(CC)[C@H]1CC[C@@]2(C)[C@@H](CC[C@@H]3[C@@H]2CC[C@@]2(C)[C@H]3C[C@H](n3cnc4ccccc43)[C@@H]2OC(C)=O)C1`, > 50 µM.
The same measure, in the same setting: with `CC(=O)O[C@H]1[C@@H](n2ccnn2)C[C@H]2[C@@H]3CC[C@H]4C[C@@H](N(C)c5ccccc5)CC[C@]4(C)[C@H]3CC[C@@]21C` the figure was 18.9 µM.
Regarding `CC(=O)O[C@H]1[C@@H](n2cnc3ccccc32)C[C@H]2[C@@H]3CC[C@H]4C[C@@H](N(C)Cc5ccccc5)CC[C@]4(C)[C@H]3CC[C@@]21C`, 4.22 µM corresponded to half-maximal inhibition (IC50).
Still for that read-out and setting: in the case of `CC(=O)O[C@H]1[C@@H](n2cncn2)C[C@H]2[C@@H]3CC[C@H]4C[C@@H](N5CCN(C)CC5)CC[C@]4(C)[C@H]3CC[C@@]21C` it was 39.7 µM; in that of `CC(=O)O[C@H]1[C@@H](n2cnc3ccccc32)C[C@H]2[C@@H]3CC[C@H]4C[C@@H](N5CCCCC5)CC[C@]4(C)[C@H]3CC[C@@]21C`, > 50 µM.

The test system of another test is HepG2. Description: Anticancer activity against human HepG2 cells after 48 hrs by MTT assay. Type of test: functional, cell-based. The following applies: HepG2, 48 h.
With `CC(=O)O[C@H]1[C@@H](n2nnc3ccccc32)C[C@H]2[C@@H]3CC[C@H]4C[C@@H](N5CCCCC5)CC[C@]4(C)[C@H]3CC[C@@]21C`, the IC50 is > 50 µM.
For `CC(=O)O[C@H]1[C@@H](n2cncn2)C[C@H]2[C@@H]3CC[C@H]4C[C@@H](N(C)c5ccccc5)CC[C@]4(C)[C@H]3CC[C@@]21C`, 21.9 µM corresponded to half-maximal inhibition (IC50).
Same read-out and setting: in the case of `CCN(CC)[C@H]1CC[C@@]2(C)[C@@H](CC[C@@H]3[C@@H]2CC[C@@]2(C)[C@H]3C[C@H](n3cnc4ccccc43)[C@@H]2OC(C)=O)C1` it was 22.1 µM.
With `CC(=O)O[C@H]1[C@@H](n2ccnn2)C[C@H]2[C@@H]3CC[C@H]4C[C@@H](N(C)c5ccccc5)CC[C@]4(C)[C@H]3CC[C@@]21C`, the IC50 amounted to 9.35 µM.
Consider `CC(=O)O[C@H]1[C@@H](n2cnc3ccccc32)C[C@H]2[C@@H]3CC[C@H]4C[C@@H](N(C)Cc5ccccc5)CC[C@]4(C)[C@H]3CC[C@@]21C`, for which half-maximal inhibition (IC50) was put at 5.14 µM.
`CC(=O)O[C@H]1[C@@H](n2cncn2)C[C@H]2[C@@H]3CC[C@H]4C[C@@H](N5CCN(C)CC5)CC[C@]4(C)[C@H]3CC[C@@]21C` showed an IC50 of 23.5 µM.
Consider `CC(=O)O[C@H]1[C@@H](n2cnc3ccccc32)C[C@H]2[C@@H]3CC[C@H]4C[C@@H](N5CCCCC5)CC[C@]4(C)[C@H]3CC[C@@]21C`, for which half-maximal inhibition (IC50) was put at 29.6 µM.

In the next test the test system is SiHa. In words: Anticancer activity against human SiHa cells after 48 hrs by MTT assay.
Conditions: not given
Type of test: functional, cell-based.
Turning to `CC(=O)O[C@H]1[C@@H](n2nnc3ccccc32)C[C@H]2[C@@H]3CC[C@H]4C[C@@H](N5CCCCC5)CC[C@]4(C)[C@H]3CC[C@@]21C`, the half-inhibitory concentration (IC50) is > 50 µM.
On the same count and under the same terms, with `CC(=O)O[C@H]1[C@@H](n2cncn2)C[C@H]2[C@@H]3CC[C@H]4C[C@@H](N(C)c5ccccc5)CC[C@]4(C)[C@H]3CC[C@@]21C` the figure was 37.1 µM.
On the same count and under the same terms, in the case of `CCN(CC)[C@H]1CC[C@@]2(C)[C@@H](CC[C@@H]3[C@@H]2CC[C@@]2(C)[C@H]3C[C@H](n3cnc4ccccc43)[C@@H]2OC(C)=O)C1` it was 29.8 µM.
The same measure, in the same setting: with `CC(=O)O[C@H]1[C@@H](n2ccnn2)C[C@H]2[C@@H]3CC[C@H]4C[C@@H](N(C)c5ccccc5)CC[C@]4(C)[C@H]3CC[C@@]21C` the figure was 11.7 µM.
On to `CC(=O)O[C@H]1[C@@H](n2cnc3ccccc32)C[C@H]2[C@@H]3CC[C@H]4C[C@@H](N(C)Cc5ccccc5)CC[C@]4(C)[C@H]3CC[C@@]21C`, for which half-maximal inhibition (IC50) required 11.9 µM.
With `CC(=O)O[C@H]1[C@@H](n2cncn2)C[C@H]2[C@@H]3CC[C@H]4C[C@@H](N5CCN(C)CC5)CC[C@]4(C)[C@H]3CC[C@@]21C`, the IC50 is > 50 µM.
With `CC(=O)O[C@H]1[C@@H](n2cnc3ccccc32)C[C@H]2[C@@H]3CC[C@H]4C[C@@H](N5CCCCC5)CC[C@]4(C)[C@H]3CC[C@@]21C`, the half-maximal inhibitory concentration (IC50) stood at 18.7 µM.

A further test concerns HEK293. In words: Cytotoxicity against human HEK293 cells after 48 hrs by MTT assay. Type of test: cell-based. The following applies: HEK293, 48 h.
With `CC(=O)O[C@H]1[C@@H](n2cnc3ccccc32)C[C@H]2[C@@H]3CC[C@H]4C[C@@H](N(C)Cc5ccccc5)CC[C@]4(C)[C@H]3CC[C@@]21C`, the IC50 was > 80 µM.
